Test results reported in ChEMBL document CHEMBL4219148, “Discovery of a highly potent orally bioavailable imidazo-[1, 2-a]pyrazine Aurora inhibitor” (Bioorg Med Chem Lett, 2018).

Legend:
[1] = molecular target: Casein kinase I isoform delta (Homo sapiens, UniProt P48730); experiment: Inhibition of CSNK1D (unknown origin)
Aurora kinase A = molecular target: T1, Aurora kinase A (Homo sapiens, UniProt O14965); experiment: Inhibition of Aurora A (unknown origin) using Tamra-PKAtide as substrate by fluorescence polarization assay
T1 sequence (O14965 whole entry): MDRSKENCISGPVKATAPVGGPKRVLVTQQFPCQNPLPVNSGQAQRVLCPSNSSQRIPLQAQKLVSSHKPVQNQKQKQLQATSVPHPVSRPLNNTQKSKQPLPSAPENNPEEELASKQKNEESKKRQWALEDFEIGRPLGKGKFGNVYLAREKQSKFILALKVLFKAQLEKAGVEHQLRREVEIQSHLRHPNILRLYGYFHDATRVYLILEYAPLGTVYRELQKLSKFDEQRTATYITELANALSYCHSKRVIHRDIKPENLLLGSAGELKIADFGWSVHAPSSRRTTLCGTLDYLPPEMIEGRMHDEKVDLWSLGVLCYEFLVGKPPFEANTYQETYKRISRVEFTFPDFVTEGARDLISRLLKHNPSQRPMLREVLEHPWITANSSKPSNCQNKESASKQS

Ephrin type-B receptor 4 = molecular target: T2, Ephrin type-B receptor 4 (Homo sapiens, UniProt P54760); experiment: Inhibition of EPHB4 (unknown origin)
T2 sequence (P54760 whole entry): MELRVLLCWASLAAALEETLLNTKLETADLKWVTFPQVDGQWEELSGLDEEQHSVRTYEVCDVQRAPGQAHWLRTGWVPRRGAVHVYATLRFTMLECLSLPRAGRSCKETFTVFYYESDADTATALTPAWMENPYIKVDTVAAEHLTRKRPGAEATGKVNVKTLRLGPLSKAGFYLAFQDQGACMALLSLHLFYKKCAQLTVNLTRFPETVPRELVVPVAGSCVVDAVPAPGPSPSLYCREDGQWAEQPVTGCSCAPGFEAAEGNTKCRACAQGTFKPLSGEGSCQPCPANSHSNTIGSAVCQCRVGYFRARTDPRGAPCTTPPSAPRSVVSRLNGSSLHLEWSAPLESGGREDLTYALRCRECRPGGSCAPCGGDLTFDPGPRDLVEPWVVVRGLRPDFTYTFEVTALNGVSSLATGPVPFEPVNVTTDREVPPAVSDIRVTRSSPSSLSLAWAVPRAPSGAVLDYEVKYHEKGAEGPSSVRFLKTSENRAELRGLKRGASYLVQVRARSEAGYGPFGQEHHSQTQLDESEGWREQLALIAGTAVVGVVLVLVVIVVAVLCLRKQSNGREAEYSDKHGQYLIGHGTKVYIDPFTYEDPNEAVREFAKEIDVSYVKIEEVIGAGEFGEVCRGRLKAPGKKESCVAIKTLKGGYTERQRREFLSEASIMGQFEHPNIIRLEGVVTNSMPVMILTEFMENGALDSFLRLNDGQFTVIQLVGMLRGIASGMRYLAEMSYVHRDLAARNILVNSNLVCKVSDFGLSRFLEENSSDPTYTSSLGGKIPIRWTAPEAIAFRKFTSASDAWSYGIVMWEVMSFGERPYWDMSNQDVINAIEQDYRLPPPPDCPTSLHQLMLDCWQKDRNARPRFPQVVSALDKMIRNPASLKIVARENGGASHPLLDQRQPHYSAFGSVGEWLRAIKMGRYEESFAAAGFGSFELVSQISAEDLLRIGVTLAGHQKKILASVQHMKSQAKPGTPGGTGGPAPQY

[2] = molecular target: T3, Serine/threonine-protein kinase 3 (Homo sapiens, UniProt Q13188); experiment: Inhibition of MST2 (unknown origin)
T3 sequence (Q13188 whole entry): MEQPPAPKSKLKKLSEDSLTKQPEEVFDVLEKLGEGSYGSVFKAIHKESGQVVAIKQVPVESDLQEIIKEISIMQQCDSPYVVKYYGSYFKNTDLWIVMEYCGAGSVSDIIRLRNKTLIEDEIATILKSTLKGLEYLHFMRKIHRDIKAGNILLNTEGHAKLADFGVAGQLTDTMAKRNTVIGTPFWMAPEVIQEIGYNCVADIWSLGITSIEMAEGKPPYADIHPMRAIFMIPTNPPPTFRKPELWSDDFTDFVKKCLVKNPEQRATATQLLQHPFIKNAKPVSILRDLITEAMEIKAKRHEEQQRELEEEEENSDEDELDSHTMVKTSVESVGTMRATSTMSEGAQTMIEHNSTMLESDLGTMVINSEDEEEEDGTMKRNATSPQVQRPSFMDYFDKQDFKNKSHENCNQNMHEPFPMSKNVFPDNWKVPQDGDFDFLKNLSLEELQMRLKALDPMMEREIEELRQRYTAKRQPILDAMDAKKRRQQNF

[3] = molecular target: Tyrosine-protein kinase Lck (Homo sapiens, UniProt P06239); experiment: Inhibition of LCK (unknown origin)
[4] = molecular target: Protein kinase C alpha type (Homo sapiens, UniProt P17252); experiment: Inhibition of PKCA (unknown origin)
[5] = molecular target: Mitogen-activated protein kinase 1 (Homo sapiens, UniProt P28482); experiment: Inhibition of ERK2 (unknown origin)
[6] = molecular target: Hepatocyte growth factor receptor (Homo sapiens, UniProt P08581); experiment: Inhibition of MET (unknown origin)
Chain of Hepatocyte growth factor receptor (P08581 whole entry): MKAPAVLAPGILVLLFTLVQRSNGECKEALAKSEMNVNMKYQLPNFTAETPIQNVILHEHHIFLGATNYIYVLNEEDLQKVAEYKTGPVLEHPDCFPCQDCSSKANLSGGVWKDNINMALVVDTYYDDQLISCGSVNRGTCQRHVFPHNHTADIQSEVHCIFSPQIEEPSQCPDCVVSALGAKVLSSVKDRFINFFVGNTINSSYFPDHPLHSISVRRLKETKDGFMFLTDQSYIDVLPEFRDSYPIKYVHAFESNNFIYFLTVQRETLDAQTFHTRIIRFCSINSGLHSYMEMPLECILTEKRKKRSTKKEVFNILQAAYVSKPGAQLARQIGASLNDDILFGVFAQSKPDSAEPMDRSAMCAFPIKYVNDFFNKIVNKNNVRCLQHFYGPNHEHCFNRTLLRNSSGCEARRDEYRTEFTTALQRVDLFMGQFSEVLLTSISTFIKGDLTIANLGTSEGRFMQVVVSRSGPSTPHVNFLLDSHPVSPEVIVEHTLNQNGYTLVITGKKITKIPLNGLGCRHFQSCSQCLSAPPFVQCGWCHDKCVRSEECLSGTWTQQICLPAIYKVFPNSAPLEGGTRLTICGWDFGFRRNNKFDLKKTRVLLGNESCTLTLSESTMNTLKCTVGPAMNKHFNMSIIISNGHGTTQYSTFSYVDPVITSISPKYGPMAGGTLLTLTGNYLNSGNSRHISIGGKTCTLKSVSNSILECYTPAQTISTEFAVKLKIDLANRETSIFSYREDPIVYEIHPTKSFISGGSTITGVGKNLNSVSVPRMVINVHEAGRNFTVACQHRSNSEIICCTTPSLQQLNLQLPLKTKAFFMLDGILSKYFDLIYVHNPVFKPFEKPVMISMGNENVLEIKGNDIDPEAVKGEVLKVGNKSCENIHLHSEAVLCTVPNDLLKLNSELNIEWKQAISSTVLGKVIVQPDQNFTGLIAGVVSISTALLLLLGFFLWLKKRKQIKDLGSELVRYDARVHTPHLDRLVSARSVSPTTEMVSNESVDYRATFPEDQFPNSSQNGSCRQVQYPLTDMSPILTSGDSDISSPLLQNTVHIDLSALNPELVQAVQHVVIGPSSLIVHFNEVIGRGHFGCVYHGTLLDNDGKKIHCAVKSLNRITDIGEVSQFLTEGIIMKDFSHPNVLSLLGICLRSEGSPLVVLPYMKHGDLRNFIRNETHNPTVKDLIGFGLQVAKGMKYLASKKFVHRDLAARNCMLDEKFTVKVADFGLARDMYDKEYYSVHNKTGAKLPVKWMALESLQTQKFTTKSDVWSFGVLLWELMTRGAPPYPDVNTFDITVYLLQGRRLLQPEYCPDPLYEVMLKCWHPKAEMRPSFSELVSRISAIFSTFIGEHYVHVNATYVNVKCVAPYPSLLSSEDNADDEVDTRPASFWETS

Chain of Tyrosine-protein kinase Lck (P06239 whole entry): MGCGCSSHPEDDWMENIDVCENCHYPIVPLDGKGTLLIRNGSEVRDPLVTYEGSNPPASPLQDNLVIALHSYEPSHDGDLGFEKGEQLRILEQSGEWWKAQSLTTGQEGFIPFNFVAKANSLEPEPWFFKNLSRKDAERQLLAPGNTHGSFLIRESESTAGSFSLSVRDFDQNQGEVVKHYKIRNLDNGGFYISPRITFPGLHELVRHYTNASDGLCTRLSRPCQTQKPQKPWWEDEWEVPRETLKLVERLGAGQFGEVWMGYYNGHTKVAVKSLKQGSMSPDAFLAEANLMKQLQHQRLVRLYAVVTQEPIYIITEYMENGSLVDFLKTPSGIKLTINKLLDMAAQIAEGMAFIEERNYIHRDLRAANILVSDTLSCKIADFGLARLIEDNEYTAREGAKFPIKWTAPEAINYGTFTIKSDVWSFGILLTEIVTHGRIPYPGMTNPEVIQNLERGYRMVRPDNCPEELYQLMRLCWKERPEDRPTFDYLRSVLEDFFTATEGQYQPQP
Chain of Mitogen-activated protein kinase 1 (P28482 whole entry): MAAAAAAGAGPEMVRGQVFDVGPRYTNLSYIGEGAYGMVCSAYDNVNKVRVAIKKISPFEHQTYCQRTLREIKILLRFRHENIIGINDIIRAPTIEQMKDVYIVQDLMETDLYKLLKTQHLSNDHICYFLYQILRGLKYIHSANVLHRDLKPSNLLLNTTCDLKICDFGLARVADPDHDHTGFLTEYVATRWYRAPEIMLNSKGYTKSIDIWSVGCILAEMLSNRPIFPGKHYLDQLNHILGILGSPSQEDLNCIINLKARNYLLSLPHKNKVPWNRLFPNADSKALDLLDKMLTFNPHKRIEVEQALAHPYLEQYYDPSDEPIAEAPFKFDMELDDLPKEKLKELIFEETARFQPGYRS
Chain of Casein kinase I isoform delta (P48730 whole entry, canonical isoform): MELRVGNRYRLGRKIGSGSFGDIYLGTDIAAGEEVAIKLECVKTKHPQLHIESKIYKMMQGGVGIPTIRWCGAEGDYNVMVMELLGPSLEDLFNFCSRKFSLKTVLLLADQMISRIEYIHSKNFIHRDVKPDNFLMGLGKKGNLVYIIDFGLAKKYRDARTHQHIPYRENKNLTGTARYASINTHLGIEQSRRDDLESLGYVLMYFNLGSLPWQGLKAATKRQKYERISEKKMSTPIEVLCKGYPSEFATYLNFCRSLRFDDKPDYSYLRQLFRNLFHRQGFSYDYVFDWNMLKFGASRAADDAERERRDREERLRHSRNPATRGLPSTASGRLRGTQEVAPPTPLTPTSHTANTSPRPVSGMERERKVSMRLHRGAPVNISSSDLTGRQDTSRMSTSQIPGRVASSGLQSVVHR

SMILES	IC50 [1]	IC50 (Aurora kinase A)	IC50 (Ephrin type-B receptor 4)	IC50 [2]	IC50 [3]	IC50 [4]	IC50 [5]	IC50 [6]
Cc1cn2c(-c3cn[nH]c3)cnc2c(Nc2cc(Cc3ccccn3)ns2)n1	> 500 nM	< 4 nM	390 nM	> 500 nM	271 nM	> 500 nM	> 500 nM	> 500 nM
CCN(CCO)Cc1cc(Nc2nc(C)cn3c(-c4cn[nH]c4)cnc23)sn1	> 500 nM	< 4 nM	100 nM	> 500 nM	< 1 nM	> 500 nM	> 500 nM	> 500 nM
Cc1cn2c(-c3cn[nH]c3)cnc2c(Nc2cc(C(NC(C)(C)C)c3ccccn3)ns2)n1 (single isomer, unassigned; (+))	> 1000 nM	≤ 4 nM	38 nM	> 1000 nM	61 nM	> 1000 nM	> 1000 nM	> 1000 nM
